Here are results for 13 molecules from ChEMBL document CHEMBL1201862, “PubChem BioAssay data set” (2004).

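Assay format: 96-well plates, 48-hour exposure. Here, GI50 denotes the concentration required for 50% inhibition of growth.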 Activity calls are given as the source filed them. Cut-off read from the data, not from the text of the source: active = GI50 up to about 1.1 µM and inactive = higher.

Test in all cases: NCI-60 cell line screen, 48 h
The test system of test [1] is ACHN.
The test system of test [2] is M14.
Test [3] relates to OVCAR-4.
Test [4] deals with HOP-62.
Test [5] concerns NCI-H522.
Test [6] concerns SF-539.
For test [7], the system named is SW-620.
In test [8] the test system is SK-MEL-28.
The test system of test [9] is IGROV-1.
Test [10] deals with HOP-92.
In test [11] the test system is KM12.
The subject of test [12] is CAKI-1.
Test [13] relates to OVCAR-3.
In test [14] the test system is HCT-15.
The test system of test [15] is Malme-3M.
The test system of test [16] is NCI-H226.
The test system of test [17] is SR.

As for `C[C@]12CC[C@H](OC(=O)Cc3ccc(N(CCCl)CCCl)cc3)CC1CC[C@@H]1C2CC[C@]2(C)NC(=O)CCC12` (some centres undefined), the GI50 in [1] is 4.04 µM (inactive); in test [2], 13.2 µM (inactive); in [3] it was 12.2 µM (inactive); in test [4], > 10 µM (inactive); in [5], 10.7 µM (inactive); in test [6], 3.5 µM (inactive). Further, the GI50 in [7] is 9.33 µM (inactive); in [8] it was 15 µM (inactive); in test [9], 14 µM (inactive); in test [10], 15.6 µM (inactive); in [11], 11 µM (inactive); in test [12], 3.92 µM (inactive). The GI50 in [13] was 4.04 µM (inactive); in test [14], 13.9 µM; in [15], 15.8 µM (inactive); in test [16] it was 15.5 µM (inactive).

Turning to `O=C(/C=C/c1ccccc1O)c1ccccc1O`, the GI50 in [1], in test [3], in test [4], in test [5], in test [6] and in test [7] was > 100 µM (inactive) throughout. The GI50 in test [8] is > 100 µM (inactive); in test [9] it was > 100 µM (inactive); in [10], 46.7 µM (inactive); in test [11] it was > 100 µM (inactive); in [12], > 100 µM (inactive); in [13], > 100 µM (inactive). For the same molecule, the GI50 in [14] is 35.9 µM; in test [15], > 100 µM (inactive); in [16], 58.9 µM (inactive).

Turning to `COC(=O)C[C@H]1CCC2(OCCO2)[C@]1(C)C(=O)OC`, the GI50 in [1], in test [2], in [3], in test [4], in test [5] and in test [6] was > 100 µM (inactive) in each case. Also, the GI50 in [7], in test [8], in test [9], in [10], in [11] and in [12] was > 100 µM (inactive) in each case. In addition, the GI50 in test [13] was > 100 µM (inactive); in test [14], more than 100 µM; in [15] it was > 100 µM (inactive).

With `O=C(O)CCCSC(=O)Nc1ccc(/N=N/c2ccccc2)cc1`, the GI50 in test [1], in test [2], in test [3], in test [4], in test [5] and in test [6] was > 100 µM (inactive) in each case. The GI50 in test [7] is > 100 µM (inactive); in test [8] it was > 100 µM (inactive); in test [11], > 100 µM (inactive); in test [12], > 100 µM (inactive); in [13], > 100 µM (inactive); in test [14], more than 100 µM. Further, the GI50 in [17] and in [16] was > 100 µM (inactive) throughout.

In the case of `Cc1cc(Cl)cc2c1NC(=O)C2(O)CC(=O)c1ccc(F)cc1` (centres undefined), the GI50 was 32.5 µM (inactive) in [1]; 88.5 µM (inactive) in [2]; 41.9 µM (inactive) in test [3]; > 100 µM (inactive) in test [4]; 40.9 µM (inactive) in test [6]; 94 µM (inactive) in test [7]. Moreover, the GI50 was 37.2 µM (inactive) in [8]; 58.9 µM (inactive) in test [9]; > 100 µM (inactive) in test [10]; > 100 µM (inactive) in [11]; > 100 µM (inactive) in test [12]; 37.8 µM (inactive) in test [13]. Also, the GI50 in [14] is 74.1 µM; in test [15] it was 29.3 µM (inactive); in test [16], 39.8 µM (inactive).

In the case of `C=C(CS(=O)(=O)c1ccccc1)C(=O)OCC`, the GI50 in test [1] was 15.5 µM (inactive); in test [2], 11.6 µM (inactive); in [5] it was 3.41 µM (inactive); in test [6] it was 17.1 µM (inactive); in test [7] it was 10.5 µM (inactive); in test [8] it was 15.1 µM (inactive). The GI50 in [9] was 19 µM (inactive); in test [10], 21.4 µM (inactive); in [11] it was 16.1 µM (inactive); in test [12], 18 µM (inactive); in test [13], 13.4 µM (inactive); in test [14], 12.6 µM. Besides, the results for the GI50 in [15] and in test [16] were 16.1 µM (inactive) and 25.1 µM (inactive), respectively.

As to `Cc1cc(-c2ccccc2)cc2[n+]1CC=C2.[O-][Cl+3]([O-])([O-])[O-]`, the GI50 in test [1] is 51.4 µM (inactive); in [2], > 100 µM (inactive); in [3], > 100 µM (inactive); in [4] it was > 100 µM (inactive); in test [5], 39.6 µM (inactive); in test [6], > 100 µM (inactive). For the same molecule, the GI50 is > 100 µM (inactive) in [7]; > 100 µM (inactive) in [8]; 15.5 µM (inactive) in test [10]; > 100 µM (inactive) in test [11]; > 100 µM (inactive) in [12]; 75 µM (inactive) in test [15]. In addition, the GI50 in [16] is 45.6 µM (inactive).

On to `CC(=O)O[C@H]1C(=O)[C@@]2(C)C(C(OC(=O)c3ccccc3)C3[C@@H](O)C(OC(=O)[C@@H](O)[C@H](NC(=O)c4ccccc4)c4ccc(C(F)(F)F)cc4)C(C)=C1C3(C)C)[C@]1(OC(C)=O)CO[C@@H]1C[C@@H]2O` (some centres undefined), for which the GI50 in test [1] was > 25 µM (inactive); in test [2], > 25 µM (inactive); in test [4] it was > 25 µM (inactive); in test [5], 7.59 µM (inactive); in test [6] it was 9.98 µM (inactive); in [7], 8 µM (inactive). The GI50 was > 25 µM (inactive) in test [8]; > 25 µM (inactive) in test [9]; > 25 µM (inactive) in [12]; 17.7 µM (inactive) in test [13]; more than 25 µM in [14]; > 25 µM (inactive) in test [15]. The GI50 is 8.43 µM (inactive) in test [17] and > 25 µM (inactive) in [16].

`Cc1cc(C)c2[s+]snc2c1`: the GI50 in [1] is > 100 µM (inactive); in test [2], 37.8 µM (inactive); in test [3], > 100 µM (inactive); in test [4], 82.4 µM (inactive); in test [5] it was 31.1 µM (inactive); in [6] it was 70 µM (inactive). For the same molecule, the GI50 in test [7] was 37.6 µM (inactive); in [8], 62.1 µM (inactive); in test [9] it was > 100 µM (inactive); in test [11], 95.7 µM (inactive); in [12], 93.8 µM (inactive); in test [13], 97.9 µM (inactive). Further, the GI50 was > 100 µM (inactive) in test [15], 23.8 µM (inactive) in [17] and > 100 µM (inactive) in test [16].

As for `CCOC1=C2C(C)(CCC3[C@@]4(C)C=CC(=O)C(C)(C)C4CC(O)[C@@]23C)C(c2ccoc2)C1=O` (some centres undefined), the GI50 in test [1] was 18.4 µM (inactive); in test [2] it was 21.8 µM (inactive); in [3], 17.2 µM (inactive); in test [4] it was 20.5 µM (inactive); in test [6] it was 17.6 µM (inactive); in [7], 17.2 µM (inactive). Further, the GI50 in test [8] is 15.6 µM (inactive); in test [9] it was 12.4 µM (inactive); in [10], 17.9 µM (inactive); in test [11] it was 15.2 µM (inactive); in [12], 20.7 µM (inactive); in test [13], 17 µM (inactive). For the same molecule, the GI50 was 11.7 µM in test [14], > 10 µM (inactive) in test [15] and 22 µM (inactive) in test [16].

`CC1(C)OC2C(CCP(=O)(O)O)OC(c3nc(C(N)=O)cs3)C2O1` (centres undefined): the GI50 in test [1], in [2], in test [3], in [5], in test [7] and in test [8] was > 100 µM (inactive) throughout. Also, the GI50 in test [9] was > 100 µM (inactive); in [10] it was > 100 µM (inactive); in [11], > 100 µM (inactive); in test [12] it was > 100 µM (inactive); in [14], more than 100 µM; in test [15] it was > 100 µM (inactive). Moreover, the GI50 in test [16] is > 100 µM (inactive).

Regarding `CCOP(=O)(OCC)/C(C#N)=C\c1ccsc1`, the GI50 in test [1], in [2], in [3], in [4], in test [5] and in test [6] was > 100 µM (inactive) throughout. For the same molecule, the GI50 in [7], in test [8], in test [10], in test [11], in test [12] and in test [13] was > 100 µM (inactive) throughout. Besides, the GI50 in test [14] was more than 100 µM; in test [15] it was > 100 µM (inactive); in test [16], > 100 µM (inactive).

On to `O=C(Cc1ccccc1)NN1C(=O)C(Cl)C1c1cc(Br)ccc1O` (centres undefined), for which the GI50 is 2.76 µM (inactive) in [1]; 4.34 µM (inactive) in [2]; 2.21 µM (inactive) in test [3]; 2.65 µM (inactive) in test [4]; 2.72 µM (inactive) in test [5]; 4.11 µM (inactive) in [7]. Besides, the GI50 in test [8] was 3.94 µM (inactive); in test [9], 7.71 µM (inactive); in test [11] it was 9.48 µM (inactive); in [12] it was 13 µM (inactive); in test [13] it was 2.56 µM (inactive); in [14] it was 3.65 µM. In addition, the figures for the GI50 in test [15], in test [17] and in [16] were 13.5 µM (inactive), 1.56 µM (inactive) and 30 µM (inactive), respectively.
